Molecules are shown by their SMILES.

The values below come from patent US20240408106A1, “BI-FUNCTIONAL COMPOUNDS AND METHODS FOR TARGETED UBIQUITINATION OF ANDROGEN RECEPTOR” (MONTELINO THERAPEUTICS, INC., priority 2021, published 2024).

The test system of this experiment is human prostate cancer cell line, 22Rv1-Enz^R. Description: 22Rv1-Enz^R cell proliferation assay. The experiment is classed as cell-based. To be noted: half maximal growth inhibition constant, 22Rv1-Enz^R cells, 6-day culture with cell media changed every 24 hours, read-out: 22Rv1-Enz^R proliferation assay GIC50. As for the experimental part:
The human prostate cancer cell line, 22Rv1 has been reported to express a high level of AR-V7. According to one procedure, 22Rv1 is seeded at 50,000 cells/well on a 24-well plate in quadruplicate and treated with test compounds in concentrations ranging up to 20 μM for four days. Standard culture media is RPMI-1640 supplemented with 10% fetal bovine serum. The test compound initially is dissolved in DMSO at 50 mM. This stock solution is then diluted as needed for the indicated concentrations. At the end of the four-day period, cells are harvested using 1% trypsin and counted using an automated cell counter.
Selected compounds may be tested in the human prostate cancer cell line, 22Rv1-Enz^R, as described in Geun Taek Lee et al., Molecular Cancer Therapeutics, 20:490-9 (2021). These procedures are similar to that described in Experimental Example 1, above, except that the assay conditions are a 6-day culture with cell media changed every 24 hours.
In the following Table (half maximal growth inhibition constant, GIC50): (+)-GIC50<200 μM; (++)-GIC50<100 μM; (+++)-GIC50<10 μM.

Consider `COc1cc(C(=O)NCCN2CCN(C(=O)COc3c(-c4csc(N5CCOCC5)n4)ccc(F)c3F)CC2)ccc1NC(=O)[C@@H]1N[C@@H](CC(C)(C)C)[C@](C#N)(c2ccc(Cl)cc2F)[C@H]1c1cccc(Cl)c1F` [Example 8, (2R,3S,4R,5S)-3-(3-chloro-2-fluorophenyl)-4-(4-chloro-2-fluorophenyl)-4-cyano-N-(4-((2-(4-(2-(2,3-difluoro-6-(2-morpholinothiazol-4-yl)phenoxy)acetyl)piperazin-1-yl)ethyl)carbamoyl)-2-methoxyphenyl)-5-neopentylpyrrolidine-2-carboxamide], for which the IC50 is less than 100 µM.
In the case of `Cc1ncsc1-c1ccc([C@H](C)NC(=O)[C@@H]2C[C@@H](O)CN2C(=O)[C@@H](NC(=O)CCCCn2nncc2CCOc2c(-c3csc(N4CCOCC4)n3)ccc(F)c2F)C(C)(C)C)cc1` [Example 4, (2S,4R)-1-((S)-2-(5-(5-(2-(2,3-difluoro-6-(2-morpholinothiazol-4-yl)phenoxy)ethyl)-1H-1,2,3-triazol-1-yl)pentanamido)-3,3-dimethylbutanoyl)-4-hydroxy-N-((S)-1-(4-(4-methylthiazol-5-yl)phenyl)ethyl)pyrrolidine-2-carboxamide] it was less than 10 µM; in that of `COc1cc(C(=O)NCC2CCN(C(=O)COc3c(-c4csc(N5CCOCC5)n4)ccc(F)c3F)CC2)ccc1NC(=O)[C@@H]1N[C@@H](CC(C)(C)C)[C@](C#N)(c2ccc(Cl)cc2F)[C@H]1c1cccc(Cl)c1F` [Example 7, (2R,3S,4R,5S)-3-(3-chloro-2-fluorophenyl)-4-(4-chloro-2-fluorophenyl)-4-cyano-N-(4-(((1-(2-(2,3-difluoro-6-(2-morpholinothiazol-4-yl)phenoxy)acetyl)piperidin-4-yl)methyl)carbamoyl)-2-methoxyphenyl)-5-neopentylpyrrolidine-2-carboxamide], less than 200 µM; in that of `COc1cc(C(=O)NCCOCCn2cc(CCOc3c(-c4csc(N5CCOCC5)n4)ccc(F)c3F)nn2)ccc1NC(=O)[C@@H]1N[C@@H](CC(C)(C)C)[C@](C#N)(c2ccc(Cl)cc2F)[C@H]1c1cccc(Cl)c1F` [Example 10, (2R,3S,4R,5S)-3-(3-chloro-2-fluorophenyl)-4-(4-chloro-2-fluorophenyl)-4-cyano-N-(4-((2-(2-(4-(2-(2,3-difluoro-6-(2-morpholinothiazol-4-yl)phenoxy)ethyl)-1H-1,2,3-triazol-1-yl)ethoxy)ethyl)carbamoyl)-2-methoxyphenyl)-5-neopentylpyrrolidine-2-carboxamide], less than 100 µM.
In the case of `Cc1ncsc1-c1ccc([C@H](C)NC(=O)[C@@H]2C[C@@H](O)CN2C(=O)[C@@H](NC(=O)CCC(=O)N2CCCC(NC(=O)COc3c(-c4csc(N5CCOCC5)n4)ccc(F)c3F)C2)C(C)(C)C)cc1` (stereo partly drawn) [Example 3, (2S,4R)-1-((2S)-2-(4-(3-(2-(2,3-difluoro-6-(2-morpholinothiazol-4-yl)phenoxy)acetamido)piperidin-1-yl)-4-oxobutanamido)-3,3-dimethylbutanoyl)-4-hydroxy-N-((S)-1-(4-(4-methylthiazol-5-yl)phenyl)ethyl)pyrrolidine-2-carboxamide], the IC50 was less than 10 µM.
Then `Cc1ncsc1-c1ccc([C@H](C)NC(=O)[C@@H]2C[C@@H](O)CN2C(=O)[C@@H](NC(=O)CCC(=O)N[C@H]2C[C@H](Oc3c(-c4csc(N5CCOCC5)n4)ccc(F)c3F)C2)C(C)(C)C)cc1` [Example 5, N1-((1r,3S)-3-(2,3-difluoro-6-(2-morpholinothiazol-4-yl)phenoxy)cyclobutyl)-N4-((S)-1-((2S,4R)-4-hydroxy-2-(((S)-1-(4-(4-methylthiazol-5-yl)phenyl)ethyl)carbamoyl)pyrrolidin-1-yl)-3,3-dimethyl-1-oxobutan-2-yl)succinamide], with less than 100 µM.
Then `COc1cc(C(=O)N2CCC(NC(=O)COc3c(-c4csc(N5CCOCC5)n4)ccc(F)c3F)CC2)ccc1NC(=O)[C@@H]1N[C@@H](CC(C)(C)C)[C@](C#N)(c2ccc(Cl)cc2F)[C@H]1c1cccc(Cl)c1F` [Example 9, (2R,3S,4R,5S)-3-(3-chloro-2-fluorophenyl)-4-(4-chloro-2-fluorophenyl)-4-cyano-N-(4-(4-(2-(2,3-difluoro-6-(2-morpholinothiazol-4-yl)phenoxy)acetamido)piperidine-1-carbonyl)-2-methoxyphenyl)-5-neopentylpyrrolidine-2-carboxamide], with less than 200 µM.
`Cc1ncsc1-c1ccc([C@H](C)NC(=O)[C@@H]2C[C@@H](O)CN2C(=O)[C@@H](NC(=O)CN2CCN(C(=O)COc3c(-c4csc(N5CCOCC5)n4)ccc(F)c3F)CC2)C(C)(C)C)cc1` [Example 1, (2S,4R)-1-((S)-2-(2-(4-(2-(2,3-difluoro-6-(2-morpholinothiazol-4-yl)phenoxy)acetyl)piperazin-1-yl)acetamido)-3,3-dimethylbutanoyl)-4-hydroxy-N-((S)-1-(4-(4-methylthiazol-5-yl)phenyl)ethyl)pyrrolidine-2-carboxamide]: the IC50 was less than 10 µM.
Take `Cc1ncsc1-c1ccc([C@H](C)NC(=O)[C@@H]2C[C@@H](O)CN2C(=O)[C@@H](NC(=O)CCN2CCN(C(=O)COc3c(-c4csc(N5CCOCC5)n4)ccc(F)c3F)CC2)C(C)(C)C)cc1` [Example 2, (2S,4R)-1-((S)-2-(3-(4-(2-(2,3-difluoro-6-(2-morpholinothiazol-4-yl)phenoxy)acetyl)piperazin-1-yl)propanamido)-3,3-dimethylbutanoyl)-4-hydroxy-N-((S)-1-(4-(4-methylthiazol-5-yl)phenyl)ethyl) pyrrolidine-2-carboxamide]: the IC50 was less than 100 µM.
